According to US8008021B2, “N-terminal truncation of cardiac troponin subunits and their roles in cardiovascular disease” (Evanston Northwestern Healthcare, priority 2006, dated 2011):

Molecular target: T1, myofibril associated μ-calpain (Mus musculus, UniProt O35350)
T1 construct: To test whether endogenous calpain in the cardiac muscle contributes to TnT NH2-terminal modification; from tissue
T1 sequence (O35350 1-713): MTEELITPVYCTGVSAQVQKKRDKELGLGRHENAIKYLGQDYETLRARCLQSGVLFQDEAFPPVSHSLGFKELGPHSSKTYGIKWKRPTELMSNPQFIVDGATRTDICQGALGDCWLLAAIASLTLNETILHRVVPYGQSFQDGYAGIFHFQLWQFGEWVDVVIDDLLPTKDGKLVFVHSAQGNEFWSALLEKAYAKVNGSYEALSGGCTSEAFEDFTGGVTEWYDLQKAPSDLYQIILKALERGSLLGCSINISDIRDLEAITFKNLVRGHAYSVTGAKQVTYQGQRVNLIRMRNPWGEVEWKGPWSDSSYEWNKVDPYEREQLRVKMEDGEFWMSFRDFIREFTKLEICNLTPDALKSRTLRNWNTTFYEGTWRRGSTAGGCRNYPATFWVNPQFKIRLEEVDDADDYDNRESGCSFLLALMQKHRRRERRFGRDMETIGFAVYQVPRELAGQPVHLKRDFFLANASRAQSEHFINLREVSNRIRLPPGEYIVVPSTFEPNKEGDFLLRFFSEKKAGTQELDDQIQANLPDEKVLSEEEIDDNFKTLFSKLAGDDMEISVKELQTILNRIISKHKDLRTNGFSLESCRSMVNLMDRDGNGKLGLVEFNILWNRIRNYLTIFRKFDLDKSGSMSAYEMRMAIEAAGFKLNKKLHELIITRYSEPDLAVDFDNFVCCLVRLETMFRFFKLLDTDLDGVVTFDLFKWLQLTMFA
T1 sequence (O88456 1-268 partner): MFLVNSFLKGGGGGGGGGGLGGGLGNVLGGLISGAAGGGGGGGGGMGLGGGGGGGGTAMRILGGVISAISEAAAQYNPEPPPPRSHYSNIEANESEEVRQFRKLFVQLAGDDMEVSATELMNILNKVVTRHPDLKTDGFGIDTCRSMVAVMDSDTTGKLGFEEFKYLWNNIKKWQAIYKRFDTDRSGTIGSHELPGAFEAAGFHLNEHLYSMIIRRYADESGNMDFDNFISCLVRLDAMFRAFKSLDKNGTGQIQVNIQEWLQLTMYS
Assay: Calpain inhibition of cTnT-ND production in TRITON X-100 extracted ventricular muscle strips (Western blot densitometry)
Format: biochemical
Settings: calpain specific inhibitor; TRITON X-100 extracted mouse cardiac muscle strips
Procedure: SDS-PAGE and Western blotting. Ventricular muscle tissues or myocytes were homogenized in Laemmli SDS-PAGE sample buffer containing 2% SDS, heated at 80° C. for 5 min, and clarified by centrifugation. Total protein extracts were resolved by 14% Laemmli gel with an acrylamide:bisacrylamide ratio of 180:1 (low cross linker) or by 15% Laemmli gel with an acrylamide:bisacrylamide ratio of 29:1 (high cross linker). The gels were stained with Coomassie Brilliant Blue R250 to reveal the resolved protein bands. Duplicate gels were electrically blotted to nitrocellulose membranes, as described previously (21). After blocking in Tris-buffered saline (TBS) containing 1% bovine serum albumin (BSA), the membrane was incubated with anti-TnT mAbs CT3, 2C8, or polyclonal antibody RATnT. The membranes were then washed with high stringency using TBS containing 0.5% TRITON® X-100 and 0.05% SDS, incubated with alkaline phosphatase-conjugated anti-mouse IgG or anti-rabbit IgG second antibodies (Sigma), washed again, and developed in 5-bromo-4-chloro-3-indolylphosphate/nitro blue tetrazolium substrate solution, as described previously (21).
TRITON® X-100 extraction of ventricular muscle strips. In an ice container, ventricular muscle was cut with a sharp razor blade into fine pieces approximately the size of isolated trabeculae. The muscle strips were washed in relaxing solution containing […], 2 mM MgCl2, 2 mM EGTA, 10 mM Tris, 0.5 mM DTT, 0.1 mM PMSF and 2 mM Na4P2O7. After centrifugation at 2,800×g at 4° C. for 15 min, the pellet was skinned in relaxing solution plus 0.5% (w/w) TRITON® X-100 at 4° C. with rotation for 10 min. After centrifugation at 14,000×g at 4° C. for 20 min, the pellet was suspended in relaxing solution without TRITON® X-100 and incubated at 37° C. with rotation. Samples were collected at a series of time points for SDS-PAGE and Western blotting to examine the modifications of cTnT and other myofibrillar proteins.
Calpain inhibition. To test whether endogenous calpain in the cardiac muscle contributes to TnT NH2-terminal modification, several different calpain inhibitors were applied to the TRITON® X-100 extraction procedure. […] TRITON® X-100 treatment of mouse ventricular muscle strips was carried out as above in the presence or absence of 100 μM hydrogen peroxide and the effect on cTnT modification was examined by Western blotting.
The effects of two cell membrane-permissible nonpeptide calpain inhibitors, PD 150606 and PD 151746 (Calbiochem), were also tested. […] PD 150606 and […] were separately added to the relaxing solution before TRITON® X-100 treatment and incubated with the minced ventricular muscle at 4° C. for 10 minutes to allow the inhibitor to penetrate cell membrane and bind to calpain. After TRITON® X-100 extraction, samples were collected for SDS-PAGE and Western blotting to examine the effect on cTnT modification.

Row | Compound | cTnT-ND production decreased to | decrease in cTnT-ND72-291 production
1 | O=C(O)/C(S)=C/c1ccc(I)cc1 [PD150606] | 63% | approximately 37%
2 | O=C(O)/C(S)=C/c1c[nH]c2ccc(F)cc12 [PD151746] | 50% | approximately 50%
